Measured values: PubChem BioAssay AID1963864 (Molecular Pharmacology Branch, DTP, NCI, 2024)

Tested on: KRAS PDC multicell spheroid viability
Assay: Anticancer human tumor 521955-158-R6-J3-PDC patient-derived pancreatic carcinoma cell line growth inhibition [KRAS2]
Settings: for IC50: curve of first compound; for viability, T/C: stronger effect = lower value
From the text: Multicellular complex tumor spheroid response to RAS pathway inhibitors in combination with a targeted agents in patient-derived cell lines with oncogenic KRAS variants from multiple cancer types
A high-throughput screen of multi-cell type tumor spheroids was designed to identify active combinations of targeted small molecules and KRAS pathway inhibitors. Complex spheroids include a stromal component modeled by human endothelial cells (HUVEC) and fibroblasts modeled by human mesenchymal stem cells (MSCs). The concentration ranges selected for each drug and investigational agent were based upon clinically achievable concentrations if the clinical Cmax of the agent was known.
Compounds. The drugs and investigational agents: BI-3406 (NSC825286), BAY-293 (NSC824723), batoprotafib (TNO155; NSC825523), sotorasib (AMG 510; NSC818433), MRTX1257 (NSC819558), elimusertib (BAY 1895344; NSC800525), molibresib (GSK525762; NSC774829), temuterkib (LY3214996; NSC803410), venetoclax (NSC766270), alisertib (NSC759677), olaparib (NSC753686), talazoparib (NSC767125), erdafitinib (NSC781556), ipatasertib (NSC767898), cabozantinib (NSC761068), nintedanib (NSC756659), abemaciclib (NSC768073), docetaxel (NSC628503), trametinib (NSC758246), and sapanisertib (NSC764658) were obtained from the National Cancer Institute (NCI) Developmental Therapeutics Program Chemical Repository. The FDA-approved anticancer drug set is available from the Developmental Therapeutics Program. […] The stock solutions were prepared in dimethyl sulfoxide (DMSO, Sigma-Aldrich, St. Louis, MO, cat. D2650) at 800-fold the tested concentration and stored at -70 degrees C prior to their use. All drugs and investigational agents were tested over a range starting from a high concentration at or near the clinical Cmax and decreasing in half-log increments. If the clinical Cmax for an agent had not been determined, the highest concentration tested was 10 microM.
Cell Culture. All cells were maintained in an incubator at 37 degrees C and 5% CO2 with 95% humidity. The PDC lines were cultured according to standard operating procedures established by the NCI PDMR (https://pdmr.cancer.gov/sops/default.htm). Briefly, all PDCs were thawed and cultured in Matrigel-coated flasks prepared with a working solution of 1X Ham's F-12 nutrient mix, without supplementation (Invitrogen, Waltham, MA, cat. 11765054), 100 U/mL penicillin-streptomycin (Invitrogen, cat. 15140122), and 2.5% Matrigel (Corning Inc., Corning, NY, cat. 354248) for the first three passages. All PDCs were cultured in complete DMEM/F-12 media containing advanced DMEM/F-12 (Invitrogen, cat. 12634028), 4.9% defined fetal bovine serum, heat inactivated (HyClone Laboratories Inc., Logan, UT, cat. SH30070.03HI), 389 ng/mL hydrocortisone (Sigma-Aldrich, cat. H4001), 9.7 ng/mL human EGF recombinant protein (Invitrogen, cat. PHG0313), 23.4 microg/mL adenine (Sigma-Aldrich, cat. A2786), 97.3 U/mL penicillin-streptomycin (Invitrogen, cat. 15140122), 1.9 mM L-glutamine (Invitrogen, cat. 25030081), and 9.7 microM Y-27632 dihydrochloride (Tocris Bioscience, Bristol, United Kingdom, cat. 1254). The PDCs were cultured in complete DMEM/F12 media without 9.7 microM Y-27632 dihydrochloride for at least two passages prior to the screen. The established cell line HOP-62 was cultured in RPMI 1640 medium, HEPES (Invitrogen, cat. 22400105) with 10% defined fetal bovine serum (HyClone Laboratories Inc., cat. SH30070.03) and 2 mM L-glutamine (Invitrogen, cat. 25030081). The pooled donor HUVEC were cultured in endothelial cell growth medium 2 (PromoCell, Heidelberg, Germany, cat. C-22011) and the hMSC were cultured in mesenchymal stem cell growth medium 2 (PromoCell, cat. C-28009). For all experiments, HUVEC and hMSC were used at passages </=5, while the malignant cell lines were used at passages </=15. […]

[1] = second compound 0.1 µM, first compound 0.0316 µM
[2] = second compound 0.1 µM, first compound 0.1 µM
[3] = second compound 0.1 µM, first compound 0.316 µM
[4] = second compound 0.1 µM, first compound 1 µM
[5] = second compound 0.1 µM, first compound 3.16 µM
[6] = second compound 0.316 µM, first compound 0.0316 µM
[7] = second compound 0.316 µM, first compound 0.1 µM
[8] = second compound 0.316 µM, first compound 0.316 µM
[9] = second compound 0.316 µM, first compound 1 µM
[10] = second compound 0.316 µM, first compound 3.16 µM
[11] = second compound 1 µM, first compound 0.0316 µM
[12] = second compound 1 µM, first compound 0.1 µM
[13] = second compound 1 µM, first compound 0.316 µM
[14] = second compound 1 µM, first compound 1 µM
[15] = second compound 1 µM, first compound 3.16 µM
[16] = second compound 3.16 µM, first compound 0.0316 µM
[17] = second compound 3.16 µM, first compound 0.1 µM
[18] = second compound 3.16 µM, first compound 0.316 µM
[19] = second compound 3.16 µM, first compound 1 µM
[20] = second compound 3.16 µM, first compound 3.16 µM
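Note: drug exposure lasted seven days.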
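Throughout, for viability, T/C: 100% = DMSO vehicle wells and lower means fewer viable cells.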

| Compound | IC50 (second compound 0.1 µM) | IC50 (second compound 0.316 µM) | IC50 (second compound 1 µM) | IC50 (second compound 3.16 µM) | viability, T/C [1] | viability, T/C [2] | viability, T/C [3] | viability, T/C [4] | viability, T/C [5] | viability, T/C [6] | viability, T/C [7] | viability, T/C [8] | viability, T/C [9] | viability, T/C [10] | viability, T/C [11] | viability, T/C [12] | viability, T/C [13] | viability, T/C [14] | viability, T/C [15] | viability, T/C [16] | other results |
| --- | --- | --- | --- | --- | --- | --- | --- | --- | --- | --- | --- | --- | --- | --- | --- | --- | --- | --- | --- | --- | --- |
| CCNC(=O)CC1N=C(c2ccc(Cl)cc2)c2cc(OC)ccc2-n2c(C)nnc21 (stereo not given) + C=CC(=O)N1CCN(c2nc(=O)n(-c3c(C)ccnc3C(C)C)c3nc(-c4c(O)cccc4F)c(F)cc23)C(C)C1 | > 10 µM | > 10 µM | > 10 µM | 0.93 µM | 88.2% | 93.7% | 79.9% | 78.5% | 81.6% | 103% | 105% | 79.3% | 72.2% | 83.3% | 112% | 108% | 83.2% | 81.1% | 66.5% | 89.3% | IC50 (second compound 10 µM): 0.266 µM; viability, T/C (second compound 0.1 µM, first compound 10 µM): 78.6%; viability, T/C (second compound 0.316 µM, first compound 10 µM): 70.6%; viability, T/C (second compound 1 µM, first compound 10 µM): 68.7%; viability, T/C [17]: 83%; viability, T/C [18]: 65.6%; viability, T/C [19]: 49.8%; viability, T/C [20]: 40.7%; viability, T/C (second compound 3.16 µM, first compound 10 µM): 45.3%; viability, T/C (second compound 10 µM, first compound 0.0316 µM): 72.1%; viability, T/C (second compound 10 µM, first compound 0.1 µM): 68.4%; viability, T/C (second compound 10 µM, first compound 0.316 µM): 46.2%; viability, T/C (second compound 10 µM, first compound 1 µM): 35.5%; viability, T/C (second compound 10 µM, first compound 3.16 µM): 33.7%; viability, T/C (second compound 10 µM, first compound 10 µM): 29.2% |
| CC(=O)OC12COC1CC(O)C1(C)C(=O)C(O)C3=C(C)C(OC(=O)C(O)C(NC(=O)OC(C)(C)C)c4ccccc4)CC(O)(C(OC(=O)c4ccccc4)C21)C3(C)C (stereo not given) + C=CC(=O)N1CCN(c2nc(OCC3CCCN3C)nc3c2CCN(c2cccc4cccc(C)c24)C3)CC1CC#N | > 3.16 µM | > 3.16 µM | > 3.16 µM | > 3.16 µM | 78.7% | 70.4% | 81.7% | 95% | 130% | 52.9% | 68.8% | 75.1% | 81.3% | 87.9% | 82.2% | 82.7% | 83.3% | 113% | 112% | 81.4% | IC50 (second compound 0.0316 µM): > 3.16 µM; viability, T/C (second compound 0.0316 µM, first compound 0.01 µM): 83.9%; viability, T/C (second compound 0.0316 µM, first compound 0.0316 µM): 72.8%; viability, T/C (second compound 0.0316 µM, first compound 0.1 µM): 71.7%; viability, T/C (second compound 0.0316 µM, first compound 0.316 µM): 80.5%; viability, T/C (second compound 0.0316 µM, first compound 1 µM): 93%; viability, T/C (second compound 0.0316 µM, first compound 3.16 µM): 110%; viability, T/C (second compound 0.1 µM, first compound 0.01 µM): 79.6%; viability, T/C (second compound 0.316 µM, first compound 0.01 µM): 69.2%; viability, T/C (second compound 1 µM, first compound 0.01 µM): 71%; viability, T/C (second compound 3.16 µM, first compound 0.01 µM): 83.2%; viability, T/C [17]: 76.8%; viability, T/C [18]: 74.3%; viability, T/C [19]: 102%; viability, T/C [20]: 107% |
